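Results reflect a 48-hour exposure of cells in 96-well plates to compound at five concentrations. The concentration for 50% growth inhibition is given as GI50. TGI: total growth inhibition.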
Experiments:
Assay in all cases: inhibition of tumour cell growth, NCI panel, 48 h
[1] = system: IGROV1 ovarian
[2] = system: BT-549 breast
[3] = system: ACHN renal
[4] = system: SK-MEL-28 melanoma
[5] = system: CCRF-CEM leukemia
[6] = system: KM12 colon
[7] = system: M14 melanoma
[8] = system: HCT-116 colon
[9] = system: OVCAR-4 ovarian
[10] = system: HL-60(TB) leukemia

Compound | GI50 [1] | TGI [1] | GI50 [2] | TGI [2] | GI50 [3] | GI50 [4] | TGI [4] | GI50 [5] | TGI [5] | GI50 [6] | TGI [6] | GI50 [7] | TGI [7] | GI50 [8] | GI50 [9] | TGI [9] | TGI [3] | TGI [10] | TGI [8] | GI50 [10]
NCCCn1c2c(c3ccccc3c1=O)C(=O)c1ccccc1-2 | 0.34 µM | > 64.4 µM | 1.47 µM | 12.4 µM | < 0.0359 µM | 0.842 µM | 3.03 µM | < 0.0462 µM | 0.375 µM | 0.124 µM | 2.65 µM | 0.628 µM | 3.47 µM | 0.259 µM | 0.785 µM | 9.82 µM | – | – | – | –
COC(=O)c1c[nH]cc1CCCCc1c[nH]cc1C(=O)OC | – | > 100 µM | – | – | – | – | > 100 µM | – | > 100 µM | – | > 100 µM | – | – | – | – | > 100 µM | > 100 µM | > 100 µM | > 100 µM | –
Cc1sc2c(c1C)C(c1ccc(Cl)cc1)=N[C@@H](CC(=O)Nc1ccc(OCCOCCOCCOCCNc3cccc4c3C(=O)N(C3CCC(=O)NC3=O)C4=O)cc1)c1nnc(C)n1-2 (stereo partly specified) | – | > 100 µM | < 0.0228 µM | > 100 µM | 0.753 µM | 16.8 µM | > 100 µM | < 0.0222 µM | > 100 µM | – | > 100 µM | 0.388 µM | > 100 µM | – | < 0.0174 µM | > 100 µM | > 100 µM | – | > 100 µM | –
NC(=O)c1cn(Cc2ccccc2)c(=O)n1Cc1ccccc1 | – | > 100 µM | – | – | – | – | > 100 µM | – | > 100 µM | – | > 100 µM | – | > 100 µM | – | – | > 100 µM | > 100 µM | > 100 µM | > 100 µM | –
CC(C)(C)OC(=O)N1C2CCCC23O[C@@H]1c1cc2c(cc1C3=O)OCO2 (stereo partly specified) | – | > 100 µM | – | – | – | – | > 100 µM | – | > 100 µM | – | > 100 µM | – | > 100 µM | – | – | > 100 µM | > 100 µM | 38.3 µM | > 100 µM | –
Cc1ccc(C)c(N2C(=O)C(=O)C(c3nc4ccccc4o3)/C(=N\NC(=O)c3ccccc3O)C2=O)c1 (stereo unspecified) | – | > 100 µM | – | – | – | – | > 100 µM | – | 42.1 µM | – | – | – | > 100 µM | – | – | 69.6 µM | > 100 µM | 31.2 µM | 63.6 µM | –
O=C1c2ccccc2C(=O)N1C/C=N/NS(=O)(=O)c1ccc(Br)cc1 | – | > 100 µM | – | – | – | – | > 100 µM | – | > 100 µM | – | > 100 µM | – | > 100 µM | – | – | > 100 µM | > 100 µM | > 100 µM | > 100 µM | –
Cc1c(Cl)cccc1NC(=O)c1cccc([N+](=O)[O-])c1O | – | > 83.2 µM | – | – | – | – | > 77 µM | – | 34.7 µM | – | > 68.5 µM | – | > 78.9 µM | – | – | > 70.1 µM | 62.5 µM | > 49.4 µM | 40 µM | –
COc1cc(C(=O)O[C@H](C(N)=O)[C@]2(C)CO2)c2cccc(C)c2c1 | < 0.01 µM | 0.0567 µM | < 0.0418 µM | 0.655 µM | – | 0.0744 µM | 1.7 µM | – | 5.94 µM | – | – | 2.13 µM | 4.84 µM | 0.431 µM | – | > 26 µM | – | – | 2.32 µM | –
NCCCOc1cc(Cl)ccc1NC(=O)c1cc2ccccc2cc1OCCCN | 0.678 µM | 2.28 µM | – | – | 1.48 µM | 1.81 µM | 3.23 µM | 0.469 µM | 2.54 µM | 1.48 µM | 2.91 µM | – | – | 1.37 µM | 1.51 µM | 2.91 µM | 2.88 µM | 2.39 µM | 2.8 µM | 0.665 µM

— PubChem BioAssay (NCI)
